Measurements reported in the supplement of paper PMC10307832.

Experiments:
Test in all cases: relative viability (nuclei count vs DMSO), 5 days (fraction); higher = more cells survive
[1] = compound: CC1CC(=O)N(C2=CN=C(N=C2N1C3CCCC3)NC4=C(C=C(C=C4)C(=O)NC5CCN(CC5)C)OC)C [NPK76-II-72-1] + Nc1ncn([C@H]2C[C@H](O)[C@@H](CO)O2)c(=O)n1 [Decitabine] (partner 2 µM)
Method in brief: (§1)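 Values are medians from duplicate plates. Each reflects relative viability, defined as the nuclei count of treated wells over that of vehicle wells. Lung cancer cell lines in 1536-well plates were pin-tool dosed one day after seeding with one drug alone or with a fixed anchor-drug dose plus five library-drug doses (not always all listed) in √10 steps, then fixed, stained and imaged at 4× after 5 days.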

[2] = compound: CC1CC(=O)N(C2=CN=C(N=C2N1C3CCCC3)NC4=C(C=C(C=C4)C(=O)NC5CCN(CC5)C)OC)C [NPK76-II-72-1] + C[C@@H](Oc1cc(-c2cnn(C3CCNCC3)c2)cnc1N)c1c(Cl)ccc(F)c1Cl [Crizotinib] (partner 1 µM)
Method in brief: as §1

[3] = compound: CC[C@@H]1C(=O)N(C)c2cnc(Nc3ccc(C(=O)NC4CCN(C)CC4)cc3OC)nc2N1C1CCCC1 [BI-2536] + COc1cccc2cc(-c3nc([C@H]4CC[C@H](C(=O)O)CC4)n4ncnc(N)c34)[nH]c12 [OSI-027] (partner 0.5 µM)
Method in brief: as §1

[4] = compound: CC1CC(=O)N(C2=CN=C(N=C2N1C3CCCC3)NC4=C(C=C(C=C4)C(=O)NC5CCN(CC5)C)OC)C [NPK76-II-72-1] + COc1cccc2cc(-c3nc([C@H]4CC[C@H](C(=O)O)CC4)n4ncnc(N)c34)[nH]c12 [OSI-027] (partner 0.5 µM)
Method in brief: as §1

Row | Cell Line | relative viability ([1]; first compound 0.01 µM) | relative viability ([1]; first compound 0.03162 µM) | relative viability ([1]; first compound 0.1 µM) | relative viability ([1]; first compound 0.3162 µM) | relative viability ([1]; first compound 1 µM) | relative viability ([2]; first compound 0.01 µM) | relative viability ([2]; first compound 0.03162 µM) | relative viability ([2]; first compound 0.1 µM) | relative viability ([2]; first compound 0.3162 µM) | relative viability ([2]; first compound 1 µM) | relative viability ([3]; first compound 0.01 µM) | relative viability ([3]; first compound 0.03162 µM) | relative viability ([3]; first compound 0.1 µM) | relative viability ([3]; first compound 0.3162 µM) | relative viability ([3]; first compound 1 µM) | relative viability ([4]; first compound 0.01 µM) | relative viability ([4]; first compound 0.03162 µM) | relative viability ([4]; first compound 0.1 µM) | relative viability ([4]; first compound 0.3162 µM) | relative viability ([4]; first compound 1 µM)
1 | ChaGo-K-1 | 0.487 | 0.52 | 0.475 | 0.512 | 0.501 | 1.11 | 1.18 | 1.11 | 1.12 | 1.19 | 0.661 | 0.577 | 0.253 | 0.136 | 0.155 | 0.561 | 0.622 | 0.582 | 0.63 | 0.653
2 | NCI-H1650 | 0.377 | 0.43 | 0.435 | 0.423 | 0.347 | 1.01 | 1.07 | 0.861 | 0.917 | 1.11 | 0.636 | 0.564 | 0.169 | 0.18 | 0.159 | 0.609 | 0.716 | 0.576 | 0.414 | 0.738
3 | NCI-H2009 | 0.422 | 0.42 | 0.38 | 0.364 | 0.365 | 0.915 | 1.12 | 0.974 | 1.01 | 1.15 | 0.613 | 0.543 | 0.259 | 0.173 | 0.154 | 0.659 | 0.671 | 0.596 | 0.547 | 0.778
4 | LOU-NH91 | 0.794 | 0.849 | 0.793 | 0.735 | 0.875 | 0.735 | 0.735 | 0.693 | 0.635 | 0.764 | 0.716 | 0.697 | 0.695 | 0.416 | 0.244 | 0.667 | 0.704 | 0.713 | 0.654 | 0.813
5 | NCI-H2405 | 0.74 | 0.789 | 0.719 | 0.629 | 0.862 | 0.863 | 0.951 | 0.816 | 0.798 | 0.855 | 0.609 | 0.64 | 0.481 | 0.163 | 0.312 | 0.64 | 0.672 | 0.633 | 0.627 | 0.67
6 | LCLC-97TM1 | 0.226 | 0.233 | 0.195 | 0.259 | 0.211 | – | 0.414 | 0.438 | 0.259 | 0.354 | 0.575 | 0.538 | 0.434 | 0.138 | 0.167 | 0.479 | 0.67 | 0.407 | 0.45 | 0.577
7 | NCI-H596 | 1.02 | 1.19 | 1.01 | 1 | 1.01 | 1 | 1.04 | 0.95 | 1.02 | 1.05 | 0.688 | 0.825 | 0.51 | 0.191 | 0.304 | 0.873 | 0.666 | 0.748 | 0.691 | 0.67
8 | NCI-H727 | 0.874 | 0.888 | 0.801 | 0.785 | 0.764 | 0.703 | 0.768 | 0.906 | 0.668 | 0.889 | 0.597 | 0.471 | 0.499 | 0.334 | 0.338 | 0.496 | 0.637 | 0.602 | 0.564 | 0.668
9 | H3255 | 0.622 | 0.58 | 0.614 | – | 0.688 | 0.855 | 0.887 | 0.819 | – | 1.16 | 0.51 | 0.586 | 0.188 | 0.259 | 0.323 | 0.445 | 0.483 | 0.531 | 0.416 | 0.588
10 | SK-MES-1 | 0.359 | 0.441 | 0.434 | 0.364 | 0.455 | 0.967 | 0.999 | 1.01 | 0.956 | 1.02 | 0.601 | 0.458 | 0.178 | 0.173 | 0.182 | 0.585 | 0.617 | 0.583 | 0.661 | 0.742
11 | NCI-H1437 | 0.579 | 0.523 | 0.531 | 0.558 | 0.641 | 0.843 | 0.956 | 0.834 | 0.746 | 0.967 | 0.857 | 0.925 | 0.398 | 0.172 | 0.149 | 0.862 | 0.877 | 0.871 | 0.843 | 0.995
12 | LU99A | 0.897 | 0.833 | 0.75 | 0.928 | 0.916 | 0.563 | 0.596 | 0.649 | 0.508 | 0.584 | 0.281 | 0.28 | 0.181 | 0.161 | 0.17 | 0.309 | 0.285 | 0.241 | 0.278 | 0.299
13 | HCC-827 | 0.282 | 0.367 | 0.333 | 0.288 | 0.35 | 1.01 | 0.912 | 0.902 | 0.895 | 0.892 | 0.715 | 0.752 | 0.853 | 0.285 | 0.195 | 0.75 | 0.788 | 0.835 | 0.597 | 0.801
14 | LK-2 | 0.379 | 0.246 | 0.265 | 0.201 | 0.407 | 0.22 | 0.247 | 0.238 | – | 0.241 | 0.202 | 0.183 | 0.169 | 0.158 | 0.151 | 0.157 | 0.227 | 0.206 | 0.201 | 0.233
15 | HCC-366 | 0.333 | 0.381 | 0.378 | 0.301 | 0.373 | 0.458 | 0.683 | 0.694 | 0.429 | 0.59 | 0.835 | 0.856 | 0.146 | 0.0244 | 0.0284 | 0.939 | 0.998 | 1.08 | 0.863 | 0.888
16 | BEN | 0.661 | 0.713 | 0.671 | 0.743 | 0.76 | 0.89 | 1.07 | 0.908 | 0.77 | 0.893 | 0.312 | 0.261 | 0.272 | 0.233 | 0.169 | 0.285 | 0.292 | 0.273 | 0.295 | 0.318
17 | NCI-H23 | 0.31 | 0.315 | 0.264 | 0.405 | 0.306 | 0.544 | 0.563 | – | 0.556 | 0.528 | 0.551 | 0.508 | 0.16 | 0.107 | 0.107 | 0.649 | 0.649 | 0.568 | 0.585 | 0.71
18 | 201T | 0.818 | 0.87 | 0.906 | 0.887 | 0.886 | 1.01 | 1.01 | 1.02 | 1.01 | 1.01 | 0.331 | 0.715 | 0.728 | 0.0923 | 0.16 | 0.65 | 0.677 | 0.703 | 0.673 | 0.474
19 | NCI-H2170 | 0.442 | 0.447 | 0.455 | 0.42 | 0.511 | 1.08 | 1.18 | 1.11 | – | 1.3 | 0.762 | 0.757 | 0.285 | 0.172 | 0.209 | 0.73 | 0.759 | 0.716 | 0.493 | 0.798
20 | NCI-H460 | 0.432 | 0.492 | 0.521 | 0.455 | 0.47 | 0.945 | 1.03 | 1.06 | 0.876 | 0.898 | 0.676 | 0.327 | 0.247 | 0.0156 | 0.0121 | 0.706 | 0.79 | 0.75 | 0.628 | 0.775
21 | NCI-H661 | 0.582 | 0.553 | 0.589 | 0.458 | 0.56 | 0.873 | 0.937 | 0.982 | – | 0.995 | 0.697 | 0.379 | 0.35 | 0.208 | 0.209 | 0.667 | 0.772 | 0.746 | 0.588 | 0.742
22 | HCC-15 | 0.559 | 0.675 | 0.638 | 0.682 | 0.671 | 0.773 | 0.874 | 0.846 | 0.756 | 0.834 | 0.723 | 0.699 | 0.218 | 0.102 | 0.122 | 0.561 | 0.774 | 0.683 | 0.579 | 0.78
23 | ABC-1 | 0.94 | 1 | 0.859 | 1.13 | 0.887 | 0.907 | 1.13 | 1.06 | 1.01 | 1.1 | 0.419 | 0.362 | 0.237 | 0.236 | 0.19 | 0.422 | 0.418 | 0.343 | 0.458 | 0.492
24 | LCLC-103H | – | 0.786 | 0.694 | 0.761 | 0.716 | 0.919 | 0.962 | 1.04 | 0.916 | 1.18 | 0.462 | 0.466 | 0.485 | 0.215 | 0.155 | 0.458 | 0.41 | 0.477 | 0.439 | 0.413
25 | NCI-H441 | 0.226 | 0.222 | 0.233 | 0.222 | 0.252 | 0.928 | 0.692 | 0.505 | 0.7 | 0.699 | 0.449 | 0.42 | 0.222 | 0.226 | 0.266 | 0.596 | 0.73 | 0.561 | 0.579 | 0.788
26 | EPLC-272H | 0.407 | 0.387 | 0.371 | 0.379 | 0.37 | 0.865 | 0.865 | 1.02 | 0.892 | 0.91 | 0.35 | 0.21 | 0.165 | 0.162 | 0.137 | 0.307 | – | 0.287 | 0.235 | 0.305
